# Reference: patent US20240043386A1, “Modulators of the Cystic Fibrosis Transmembrane Conductance Regulator Protein and Methods of Use” (AbbVie Global Enterprises Ltd., priority 2021, published 2024)
# Read-outs that look alike come from different tables or passages of the source.
# Key:
# F508del/F508del CFTR = target: T1, F508del/F508del CFTR (Homo sapiens, UniProt P13569, DEL508-508); assay: Trans-Epithelial Current Clamp (TECC) assay using primary human bronchial epithelial cells; format: cell-based; conditions: for Emax (% Dual): maximum percent activity relative to positive control (co-corrector 0.15 μM + potentiator 0.45 μM = 100%), primary hBE cells F508del/F508del; for EC50: primary hBE cells homozygous F508del/F508del, test C2 corrector with co-corrector and potentiator, 18-24 hours at 37° C., equivalent CFTR current (IEQ)/AUC
# T1 construct: cells isolated from CF patients with the homozygous mutation; endogenous in cells; host or cells: primary human bronchial epithelial (hBE) cells from CF patients homozygous for F508del
# Summary of the method: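 F508del/F508del primary hBE cells grown 35 days at air-liquid interface were treated basolaterally with C2 correctors plus fixed co-corrector and potentiator for 18-24 h at 37° C. TECC-24 current clamp at 36.5° C in HEPES-buffered F-12 Coon's, pH 7.4; equivalent current IEQ=VT/RT, plus AUC between forskolin peak and bumetanide.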
# F508delCFTR = target: T2, F508delCFTR (Homo sapiens, UniProt P13569, DEL508-508); assay: Cell Surface Expression-Horse Radish Peroxidase (CSE-HRP) assay in CFBE41o-F508delCFTR-HRP cells; format: cell-based; conditions: for EC50: CFBE41o-F508delCFTR-HRP cells, 18-24 hours at 33° C., luminescence; for Maximum % activity (with co-corrector) / Maximum % activity (without co-corrector): normalized to on-plate positive control corrector (2 μM)
# T2 construct: expressed in transfected cells; host or cells: CFBE41o- human lung-derived epithelial cell line, doxycycline-inducible expression
# Summary of the method: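 CFBE41o- cells expressing F508delCFTR with HRP in the fourth exofacial loop were doxycycline-induced (0.5 μg/mL) for 68–72 h, then exposed to correctors for 18–24 h at 33 °C, with or without 2 μM co-corrector. Surface HRP was read by luminol luminescence, and % activity was normalized to the on-plate positive control; EC50 came from a variable-slope sigmoidal fit (8 points, 3-fold dilution, 20 or 30 μM top).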
# [1] = with co-corrector (2 μM), read-out: EC50 (with co-corrector)
# [2] = without co-corrector, read-out: EC50 (without co-corrector)
# T2 sequence (P13569 with tags, fused parts or gaps DEL508-508): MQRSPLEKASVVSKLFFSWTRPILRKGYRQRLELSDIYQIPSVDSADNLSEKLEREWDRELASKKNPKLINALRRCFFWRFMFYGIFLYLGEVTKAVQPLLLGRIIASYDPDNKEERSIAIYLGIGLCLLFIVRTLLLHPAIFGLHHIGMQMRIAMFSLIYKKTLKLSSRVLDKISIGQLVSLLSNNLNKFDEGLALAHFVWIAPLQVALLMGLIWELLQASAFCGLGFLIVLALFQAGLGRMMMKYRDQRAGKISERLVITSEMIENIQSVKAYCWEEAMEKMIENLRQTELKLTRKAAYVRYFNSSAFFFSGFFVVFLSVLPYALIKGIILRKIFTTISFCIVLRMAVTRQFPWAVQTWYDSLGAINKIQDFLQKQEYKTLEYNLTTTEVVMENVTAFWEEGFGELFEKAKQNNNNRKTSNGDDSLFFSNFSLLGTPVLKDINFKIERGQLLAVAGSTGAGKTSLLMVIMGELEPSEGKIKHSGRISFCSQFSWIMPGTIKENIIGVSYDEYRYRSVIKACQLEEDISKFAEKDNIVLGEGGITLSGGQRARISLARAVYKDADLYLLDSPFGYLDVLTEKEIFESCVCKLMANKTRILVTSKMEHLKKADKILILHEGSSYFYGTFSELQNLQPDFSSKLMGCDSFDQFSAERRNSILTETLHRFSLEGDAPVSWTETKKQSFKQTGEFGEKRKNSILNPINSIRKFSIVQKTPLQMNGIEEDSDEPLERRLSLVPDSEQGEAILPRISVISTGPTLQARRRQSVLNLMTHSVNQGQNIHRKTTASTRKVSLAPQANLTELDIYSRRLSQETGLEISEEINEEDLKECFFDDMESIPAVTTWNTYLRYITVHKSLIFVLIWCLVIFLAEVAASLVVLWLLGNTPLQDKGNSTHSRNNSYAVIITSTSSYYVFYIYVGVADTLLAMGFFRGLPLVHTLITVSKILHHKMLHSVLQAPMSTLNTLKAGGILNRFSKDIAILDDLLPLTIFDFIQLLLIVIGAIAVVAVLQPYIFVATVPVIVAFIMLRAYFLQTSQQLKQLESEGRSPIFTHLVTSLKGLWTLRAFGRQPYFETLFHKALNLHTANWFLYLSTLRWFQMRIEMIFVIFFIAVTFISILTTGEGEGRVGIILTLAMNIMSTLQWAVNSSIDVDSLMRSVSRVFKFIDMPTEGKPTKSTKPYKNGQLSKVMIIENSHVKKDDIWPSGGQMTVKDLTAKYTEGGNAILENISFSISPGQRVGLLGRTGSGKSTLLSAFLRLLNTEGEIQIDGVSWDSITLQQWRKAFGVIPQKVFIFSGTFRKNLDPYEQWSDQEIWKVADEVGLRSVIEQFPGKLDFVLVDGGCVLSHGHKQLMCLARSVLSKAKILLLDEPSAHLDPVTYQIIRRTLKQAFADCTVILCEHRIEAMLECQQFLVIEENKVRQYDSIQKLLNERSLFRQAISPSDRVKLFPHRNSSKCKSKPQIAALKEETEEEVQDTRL
# T1 sequence (P13569 with tags, fused parts or gaps DEL508-508): as above
Emax (% Dual) (F508del/F508del CFTR),EC50 (F508del/F508del CFTR),EC50 (F508delCFTR; [1]),Maximum % activity (with co-corrector) (F508delCFTR; with co-corrector (2 μM)),EC50 (F508delCFTR; [2]),Maximum % activity (without co-corrector) (F508delCFTR; without co-corrector),Structure (SMILES)
135 % Dual,> 300 nM,4380 nM,406%,5440 nM,108%,"COc1cncc([C@@H]2C[C@]2(C(=O)NS(=O)(=O)c2cccc3nc(C)ccc23)c2cc(C)ccc2OC)c1 (single isomer, unassigned) [Example 51]"
282 % Dual,30.3 nM,364 nM,,825 nM,825%,"COc1ccc(C)cc1[C@@]1(C(=O)NS(=O)(=O)c2cccc3nc(C)ccc23)C[C@H]1c1ccc(C(C)C)nc1OC (racemic) [Example 78, rac-(1r,2s)-1-(2-methoxy-5-methylphenyl)-2-[2-methoxy-6-(propan-2-yl)pyridin-3-yl]-N-(2-methylquinoline-5-sulfonyl)cyclopropane-1-carboxamide]"
198 % Dual,0.9 nM,359 nM,,988 nM,,"COc1ccc(C)cc1[C@]1(C(=O)NS(=O)(=O)c2cccc3nc(C)ccc23)C[C@@H]1c1cccc(OC(C)C)n1 [Example 97, (1S,2S)-1-(2-methoxy-5-methylphenyl)-N-(2-methylquinoline-5-sulfonyl)-2-{6-[(propan-2-yl)oxy]pyridin-2-yl}cyclopropane-1-carboxamide]"
293 % Dual,2.8 nM,337 nM,,368 nM,515%,"COc1ccc(C)cc1[C@@]1(C(=O)NS(=O)(=O)c2cccc3nc(C)ccc23)C[C@H]1c1ccccc1F (single isomer, unassigned) [Example 26]"
341 % Dual,5.86 nM,339 nM,,1000 nM,,"CCOc1cccc([C@H]2C[C@@]2(C(=O)NS(=O)(=O)c2cccc3nc(C)ccc23)c2cc(C)ccc2OC)n1 [Example 55, (1S,2S)-2-(6-ethoxypyridin-2-yl)-1-(2-methoxy-5-methylphenyl)-N-(2-methylquinoline-5-sulfonyl)cyclopropane-1-carboxamide]"
296 % Dual,3.1 nM,277 nM,,1450 nM,,"COc1ccc(C)cc1[C@]1(C(=O)NS(=O)(=O)c2cccc3nc(C)ccc23)CC1c1cccc(Cl)n1 (stereo in doubt) [Example 105, (1S,2S)-2-(6-chloropyridin-2-yl)-1-(2-methoxy-5-methylphenyl)-N-(2-methylquinoline-5-sulfonyl)cyclopropane-1-carboxamide]"
296 % Dual,0.66 nM,,,2380 nM,,"COc1ccc([C@@H]2C[C@]2(C(=O)NS(=O)(=O)c2cccc3nc(C)ccc23)c2cc(C)ccc2OC)cc1 (single isomer, unassigned) [Example 17]"
209 % Dual,12.6 nM,855 nM,,1810 nM,749%,"COc1nccc([C@@H]2C[C@]2(C(=O)NS(=O)(=O)c2cccc3nc(C)ccc23)c2cc(C)ccc2OC)n1 (racemic) [Example 95, rac-(1r,2r)-1-(2-methoxy-5-methylphenyl)-2-(2-methoxypyrimidin-4-yl)-N-(2-methylquinoline-5-sulfonyl)cyclopropane-1-carboxamide]"
201 % Dual,21 nM,804 nM,,1440 nM,,"COc1nccc([C@H]2C[C@@]2(C(=O)NS(=O)(=O)c2cccc3nc(C)ccc23)c2cc(C)ccc2OC)n1 (single isomer, unassigned) [Example 98]"
250 % Dual,12.9 nM,497 nM,,626 nM,523%,"COc1ccc(C)cc1[C@@]1(C(=O)NS(=O)(=O)c2cccc3nc(C)ccc23)C[C@H]1c1ccccc1 (single isomer, unassigned) [Example 2]"
459 % Dual,2.9 nM,385 nM,,783 nM,,"COc1ccc(C)cc1[C@]1(C(=O)NS(=O)(=O)c2cccc3nc(C)ccc23)C[C@@H]1c1ccccc1C [Example 34, (1S,2R)-1-(2-methoxy-5-methylphenyl)-2-(2-methylphenyl)-N-(2-methylquinoline-5-sulfonyl)cyclopropane-1-carboxamide]"
152 % Dual,42 nM,3680 nM,460%,7260 nM,113%,"COc1ncc([C@@H]2C[C@]2(C(=O)NS(=O)(=O)c2cccc3nc(C)ccc23)c2cc(C)ccc2OC)cn1 (single isomer, unassigned) [Example 37]"
355 % Dual,50.8 nM,2000 nM,,2930 nM,890%,"COc1ccc(C)cc1[C@]1(C(=O)NS(=O)(=O)c2cccc3nc(C)ccc23)C[C@@H]1c1cncc(F)c1 (single isomer, unassigned) [Example 54]"
169 % Dual,> 300 nM,2610 nM,625%,3980 nM,229%,"COc1ccc(C)cc1[C@@]1(C(=O)NS(=O)(=O)c2cccc3nc(C)ccc23)C[C@H]1c1cncc(F)c1 (single isomer, unassigned) [Example 53]"
253 % Dual,3.5 nM,187 nM,,306 nM,741%,"COc1ccc(C)cc1C1(C(=O)NS(=O)(=O)c2cccc3nc(C)ccc23)CC1c1ccc(C(F)(F)F)cc1 (racemic) [Example 5, rac-(1r,2s)-1-(2-methoxy-5-methylphenyl)-N-(2-methylquinoline-5-sulfonyl)-2-[4-(trifluoromethyl)phenyl]cyclopropane-1-carboxamide]"
187 % Dual,87.6 nM,1150 nM,,2130 nM,653%,"COc1ccc(C)cc1[C@]1(C(=O)NS(=O)(=O)c2cccc3nc(C)ccc23)C[C@@H]1c1cnc(C)cn1 (single isomer, unassigned) [Example 92]"
127 % Dual,182 nM,1150 nM,,1850 nM,690%,"COc1ccc(C)cc1[C@@]1(C(=O)NS(=O)(=O)c2cccc3nc(C)ccc23)C[C@H]1c1cncc(F)c1 (racemic) [Example 42, rac-(1r,2s)-2-(5-fluoropyridin-3-yl)-1-(2-methoxy-5-methylphenyl)-N-(2-methylquinoline-5-sulfonyl)cyclopropane-1-carboxamide]"
271 % Dual,42.6 nM,132 nM,,268 nM,491%,"COc1ccc([C@@H]2C[C@]2(C(=O)NS(=O)(=O)c2cccc3nc(C)ccc23)c2cc(C)ccc2OC)c(OC)n1 (single isomer, unassigned) [Example 93]"
331 % Dual,47.9 nM,1220 nM,,1710 nM,582%,"COc1ccc(C)cc1[C@@]1(C(=O)NS(=O)(=O)c2cccc3nc(C)ccc23)C[C@H]1c1cncc(C)n1 (racemic) [Example 35, rac-(1r,2r)-1-(2-methoxy-5-methylphenyl)-2-(6-methylpyrazin-2-yl)-N-(2-methylquinoline-5-sulfonyl)cyclopropane-1-carboxamide]"
161 % Dual,63.8 nM,779 nM,,1520 nM,438%,"CCOc1ccc([C@@H]2C[C@]2(C(=O)NS(=O)(=O)c2cccc3nc(C)ccc23)c2cc(C)ccc2OC)cn1 [Example 59, (1R,2S)-2-(6-ethoxypyridin-3-yl)-1-(2-methoxy-5-methylphenyl)-N-(2-methylquinoline-5-sulfonyl)cyclopropane-1-carboxamide]"
315 % Dual,97 nM,890 nM,847%,1740 nM,399%,"COc1ccc(C)cc1[C@@]1(C(=O)NS(=O)(=O)c2cccc3nc(C)ccc23)C[C@H]1c1cnc(C(C)C)cn1 (single isomer, unassigned) [Example 63]"
329 % Dual,261 nM,474 nM,,990 nM,483%,"CCOc1cnc([C@@H]2C[C@]2(C(=O)NS(=O)(=O)c2cccc3nc(C)ccc23)c2cc(C)ccc2OC)cn1 (racemic) [Example 62, rac-(1r,2r)-2-(5-ethoxypyrazin-2-yl)-1-(2-methoxy-5-methylphenyl)-N-(2-methylquinoline-5-sulfonyl)cyclopropane-1-carboxamide]"
